Results as given in US20180028487A1, “DERMATOLOGICAL FORMULATIONS OF 2-(2-ETHOXY-2-OXOETHYL)(METHYL)AMINO-2-OXOETHYL 5-(TETRADECYLOXY)FURAN-2-CARBOXYLATE” (Dermira Inc., priority 2016, published 2018).
One block for each compound: values may come before it.

Assays:
[1] = Solubility in solvents / vehicle; type: physicochemical
Description: In various embodiments, the dermatologically acceptable vehicle comprises dimethyl isosorbide and one or more alcohols. […] DMI is freely miscible with alcohols such as ethanol, isopropanol (IPA), polyols such as polyethylene glycol (PEG 200 or PEG 400), or a mixture thereof. By adjusting the relevant amounts of DMI and the alcohol(s), the solubility and saturation of the active ingredient in the dermatological formulation can be adjusted to maximize the thermodynamic activity of the active ingredient in the gel. In a specific embodiment, the dermatologically acceptable vehicle comprises, by weight ratios, 50 parts ethanol, 20 parts IPA, 15.5 parts PEG400, and 12.5 parts DMI. The vehicle is typically a clear gel, and bears the same appearance with or without the active ingredient.
In certain embodiment, the crystalline product form is a white crystalline solid with a low-melting point (64-66° C.), having solubility of about 90 mg/g (±5 mg/g) in a solvent system comprising Ethanol/IPA/PEG 400/DMI at 50/20/15.5/12.5 (w/w).

[2] = Dose range study, safety and tolerability (Example 5); type: in vivo, human; conditions: 4.0% QD, 7.5% QD and 7.5% BID, 12-week treatment period
Description: Safety was assessed through adverse events (AEs), local skin responses (LSRs, determined by the presence and severity of erythema, dryness, peeling, burning/stinging, and pruritus), laboratory tests (serum chemistry, and hematology), vital signs, and physical examinations.

[3] = system: acne vulgaris on the face; assay: Dose range study, efficacy (Example 5); type: in vivo, human; conditions: for LS mean change in noninflammatory lesion counts: Week 12; for LS mean change in inflammatory lesion counts / percentage of subjects achieving minimum 2-grade improvement in IGA score: baseline to Week 12
Description: Dose ranges were determined in adult subjects with acne vulgaris on the face. The study was a randomized, vehicle controlled, parallel group study designed to assess the efficacy and safety of the active formulations comprising a compound of Formula (Ia) at a concentration of 7.5% BID, 7.5% QD, and 4.0% QD, respectively. The results were compared to those of vehicle formulation (BID or QD) on subjects with moderate to severe facial acne. A total of 420 adult subjects were randomized to active formulations (7.5% BID, 7.5% QD, and 4.0% QD) and vehicle (BID and QD) in a 2:2:2:1:1 fashion. Study treatments continued for 12 weeks. Subjects returned to the study clinic at Weeks 1, 2 (phone call only), 4, 8 and 12 (study exit). Primary efficacy endpoints for this study were 1) the mean absolute change from baseline to Week 12 in inflammatory and noninflammatory lesion counts and 2) the proportion of subjects who achieved a 2-grade improvement in the IGA from baseline to Week 12. Absolute change from baseline to Week 12 in inflammatory and non-inflammatory lesion counts was analyzed using an analysis of covariance (ANCOVA) model with a factor of treatment and the respective baseline lesion count as a covariate. The proportion of subjects who are dichotomized to success (minimum 2-grade improvement from baseline in IGA score) at Week 12 was analyzed using a Cochran-Mantel-Haenszel (CMH) test. Exploratory analyses were conducted for linearity of a dose response for the proportion of subjects dichotomized to an IGA success.

[4] = Stability studies on non-GMP and GMP material; type: physicochemical
Description: Stability studies conducted on non-GMP and GMP material have shown chemical stability the compound of Formula (Ia) for 24 months at 5° C. and 25° C./60% Relative Humidity (RH); and for 6 months at 40° C./75% RH.

[5] = Dose range study, pharmacokinetics: plasma concentrations (Example 5); type: in vivo, human; conditions: for systemic absorption: topical application at 7.5% strength, twice daily for 12 weeks
Description: A subset of study centers enrolled subjects for an assessment of PK. Blood was to be collected from approximately 10 subjects per treatment group. At the Day 1 and Week 8 visits, a predose blood sample was collected prior to the first application of study drug for the day; samples were then collected at 1, 2, 3, and 4 hours after application of study drug.

[6] = cited from earlier work

- solubility ([1]; crystalline product form, solvent system Ethanol/IPA/PEG 400/DMI at 50/20/15.5/12.5 (w/w)): about 90 mg/g
- solubility ([1]; in dimethyl isosorbide (DMI)): about 125 mg/g
- chemical stability ([4]; 5° C.): 24 months
- stability of the crystal form ([4]; 5° C.): up to 36 months
- stability of the crystal form ([4]; 25° C./60% RH): up to 36 months
- chemical stability ([4]; 25° C./60% Relative Humidity (RH)): 24 months
- stability of the crystal form ([4]; 30° C./65% RH): up to 27 months
- chemical stability ([4]; 40° C./75% RH): 6 months
- plasma concentration of Compound of Formula (Ia) ([5]; Day 1, topical, all but one subject): undetectable
- plasma concentration of Compound of Formula (Ia) ([5]; Week 8, all tested subjects): undetectable
- concentration at 2 h ([5]; human, plasma, topical, Day 1, one subject, one time point (2 hours post-dosing), read-out: plasma concentration of Compound of Formula (Ia)): 0.304 ng/mL
- systemic absorption [5]: little or no
SMILES: CCCCCCCCCCCCCCOc1ccc(C(=O)OCC(=O)N(C)CC(=O)OCC)o1 [Formula (Ia), 2-((2-ethoxy-2-oxoethyl)(methyl)amino)-2-oxoethyl 5 (tetradecyloxy) furan-2-carboxylate]
- tolerability [2]: well tolerated
- LS mean change in noninflammatory lesion counts ([3]; 4.0% QD): −15.3
- LS mean change in inflammatory lesion counts ([3]; 4.0% QD): −14.6
- percentage of subjects achieving minimum 2-grade improvement in IGA score ([3]; 4.0% QD): 21.6%
- LS mean change in noninflammatory lesion counts ([3]; 7.5% BID): −17.5
- LS mean change in inflammatory lesion counts ([3]; 7.5% BID): −15.0
- percentage of subjects achieving minimum 2-grade improvement in IGA score ([3]; 7.5% BID): 25.9%
- LS mean change in noninflammatory lesion counts ([3]; 7.5% QD): −13.4
- LS mean change in inflammatory lesion counts ([3]; 7.5% QD): −14.5

- systemic absorption [5]: little or no
SMILES: CCCCCCCCCCCCCCOc1ccc(C(=O)O)o1 [TOFA, 5-(tetradecyloxy)-2-furoic acid, reference compound]
- bioavailability through the skin [6]: poor
